# Assay results taken from patent publication US20260234115A1, “LIPID COMPOUNDS, COMPOSITIONS, AND USES THEREOF” (Liberate Bio, Inc., priority 2023, published 2026).
# Marks after values point to notes of the source that are not given here.
# System: mouse organs
# Experiment: In vivo activity screening in mice: organ mean total flux (p/s) of luciferase activity after injection of F2 LNP pools (Table 6, FIG. 7A-7C)
# Conditions: luciferase mRNA
# Procedure: Small rodent biodistribution studies were performed in mice (e.g., C57BL/6J, Balb-c, CD-1, etc.). For evaluating LNP biodistribution and tissue activity upon systemic administration, C57BL/6J mice received dose administration by single intravenous injection via tail vein with LNP formulations (individual or pooled) in PBS, at different dose (0.25-3 mg/kg) levels of firefly luciferase mRNA. At predetermined time points (4-6 hours post-injection), the animals were anesthetized via isoflurane and subjected to in-life imaging sessions for bioluminescence using an In Vivo Imaging System (IVIS). All animals were dosed with D-Luciferin at 15 mg/mL via subcutaneous (SC) injection at 0.2 mL/animal. Animals had their abdomen hair shaved using an animal trimmer. They were then placed so their shaved belly faced up toward the IVIS camera. Whole body imaging sessions were performed 10-15 minutes following D-Luciferin administration.
# For in detail organ distribution and activity of LNP formulations, ex vivo imaging sessions were also performed. All animals received SC D-Luciferin and were then euthanized by isoflurane overdose, followed by cardiac perfusion with saline. Following perfusion, the organs were collected and subjected to IVIS imaging for luminescence within 10-15 minutes of D-Luciferin injection.
# All IVIS images were processed with a computer software to identify the regions of interests for individual organs to detect the total flux (p/s) values as luminescence quantification. Then the total flux values were graphed to evaluate the in vivo activity in each collected organ.
# Small rodent biodistribution studies were performed in mice according to the General Study Protocols in Example 3(a). LNPs incorporating lipid compounds were prepared in Formulation F2, with MC3 as lipid compound (Cayman Chemical) prepared using Formulation F2 for comparison. LNP pools (with firefly luciferase mRNA encapsulated) were injected into mice at varying doses, and organ mean total flux (p/s) results (measuring luciferase activity) were then collected according to Example 3(a).
# LNPs comprising MC3 used as a control and for cross-mouse comparison. Dose is in mg/kg; LC is Lipid Compound according to Table 1.
# Additional screening results for Compounds 7, 13, 14, 26, 33, 38, 39, 40, 48, 60, 61, 89, 103, and 109 in spleen, femur, and muscle are shown in FIG. 7A, FIG. 7B, and FIG. 7C, with MC3 as a used as a control for comparison.
structure (smiles),measurement,setting,value
"CCCCCCC(CCC(=O)OCC(COC(=O)CCCCOC(=O)C(CCCC)CCCCCC)(COC(=O)CCCCOC(=O)C(CCCC)CCCCCC)COC(=O)CC12CC3CC(CC(C3)C1)C2)OC(=O)NCCN1CCCC1 (centres unmarked) [Compound 59, [5-[2-[[2-(1-adamantyl)acetyl]oxymethyl]-2-[5-(2-butyloctanoyloxy)pentanoyloxymethyl]-3-[4-(2-pyrrolidin-1-ylethylcarbamoyloxy)decanoyloxy]propoxy]-5-oxo-pentyl]2-butyloctanoate]",Organ Mean Total Flux Femur,"Mouse 13, dose 0.5 mg/kg",2.6 p/s (×10^6)
same,Organ Mean Total Flux Heart,"Mouse 13, dose 0.5 mg/kg",2.6 p/s (×10^6)
same,Organ Mean Total Flux Kidney,"Mouse 13, dose 0.5 mg/kg",1.5 p/s (×10^6)
same,Organ Mean Total Flux Liver,"Mouse 13, dose 0.5 mg/kg",1967 p/s (×10^6)
same,Organ Mean Total Flux Lung,"Mouse 13, dose 0.5 mg/kg",9.9 p/s (×10^6)
same,Organ Mean Total Flux Muscle,"Mouse 13, dose 0.5 mg/kg",4.7 p/s (×10^6)
same,Organ Mean Total Flux Pancreas,"Mouse 13, dose 0.5 mg/kg",0.7 p/s (×10^6)
same,Organ Mean Total Flux Spleen,"Mouse 13, dose 0.5 mg/kg",2.8 p/s (×10^6)
"CCCCC/C=C\CCOC(=O)CCCCC(=O)OCC(COC(=O)CCCCC(=O)OCC/C=C\CCCCC)(COC(=O)CCC(CCCCCC)OC(=O)NCCN1CCCC1)COC(=O)C12CCC(F)(CC1)CC2 (centres unmarked) [Compound 93, O6-[2-[(4-fluorobicyclo[2.2.2]octane-1-carbonyl)oxymethyl]-2-[[6-[(Z)-non-3-enoxy]-6-oxo-hexanoyl]oxymethyl]-3-[4-(2-pyrrolidin-1-ylethylcarbamoyloxy)decanoyloxy]propyl]O1-[(Z)-non-3-enyl]hexanedioate]",Organ Mean Total Flux Femur,"Mouse 12, dose 0.5 mg/kg",27.8 p/s (×10^6)
same,Organ Mean Total Flux Heart,"Mouse 12, dose 0.5 mg/kg",1.3 p/s (×10^6)
same,Organ Mean Total Flux Kidney,"Mouse 12, dose 0.5 mg/kg",3.5 p/s (×10^6)
same,Organ Mean Total Flux Liver,"Mouse 12, dose 0.5 mg/kg",528.7 p/s (×10^6)
same,Organ Mean Total Flux Lung,"Mouse 12, dose 0.5 mg/kg",34.3 p/s (×10^6)
same,Organ Mean Total Flux Muscle,"Mouse 12, dose 0.5 mg/kg",11.0 p/s (×10^6)
same,Organ Mean Total Flux Pancreas,"Mouse 12, dose 0.5 mg/kg",25.8 p/s (×10^6)
same,Organ Mean Total Flux Spleen,"Mouse 12, dose 0.5 mg/kg",136.6 p/s (×10^6)
"CCCCC/C=C\CCOC(=O)CCCCCCC(=O)OCC(COC(=O)CCCCCCC(=O)OCC/C=C\CCCCC)(COC(=O)CCCCCCC(=O)OCC/C=C\CCCCC)COC(=O)CCC(CCCCCCCC)OC(=O)NCCN1CCCC1 (centres unmarked) [Compound 27, O8-[2,2-bis[[8-[(Z)-non-3-enoxy]-8-oxooctanoyl]oxymethyl]-3-[4-(2-pyrrolidin-1-ylethylcarbamoyloxy)dodecanoyloxy]propyl]O1-[(Z)-non-3-enyl]octanedioate]",Organ Mean Total Flux Femur,"Mouse 11, dose 0.5 mg/kg",1.1 p/s (×10^6)
same,Organ Mean Total Flux Heart,"Mouse 11, dose 0.5 mg/kg",1.7 p/s (×10^6)
same,Organ Mean Total Flux Kidney,"Mouse 11, dose 0.5 mg/kg",1.2 p/s (×10^6)
same,Organ Mean Total Flux Liver,"Mouse 11, dose 0.5 mg/kg",1441 p/s (×10^6)
same,Organ Mean Total Flux Lung,"Mouse 11, dose 0.5 mg/kg",16.4 p/s (×10^6)
same,Organ Mean Total Flux Muscle,"Mouse 11, dose 0.5 mg/kg",2.0 p/s (×10^6)
same,Organ Mean Total Flux Pancreas,"Mouse 11, dose 0.5 mg/kg",0.5 p/s (×10^6)
same,Organ Mean Total Flux Spleen,"Mouse 11, dose 0.5 mg/kg",1.0 p/s (×10^6)
"CCCCC/C=C\CCOC(=O)CCCCCCC(=O)OCC(COC(=O)CCCCCCC(=O)OCC/C=C\CCCCC)(COC(=O)CCCCCCC(=O)OCC/C=C\CCCCC)COC(=O)CCC(CCCCCC)OC(=O)OCCCN1CCCC1 (centres unmarked) [Compound 31, O8-[2,2-bis[[8-[(Z)-non-3-enoxy]-8-oxo-octanoyl]oxymethyl]-3-[4-(3-pyrrolidin-1-ylpropoxycarbonyloxy)decanoyloxy]propyl]O1-[(Z)-non-3-enyl]octanedioate]",Organ Mean Total Flux Femur,"Mouse 5, dose 0.5 mg/kg",0.9 p/s (×10^6)
same,Organ Mean Total Flux Heart,"Mouse 5, dose 0.5 mg/kg",0.1 p/s (×10^6)
same,Organ Mean Total Flux Kidney,"Mouse 5, dose 0.5 mg/kg",0.1 p/s (×10^6)
same,Organ Mean Total Flux Liver,"Mouse 5, dose 0.5 mg/kg",26.8 p/s (×10^6)
same,Organ Mean Total Flux Lung,"Mouse 5, dose 0.5 mg/kg",1.2 p/s (×10^6)
same,Organ Mean Total Flux Muscle,"Mouse 5, dose 0.5 mg/kg",1.0 p/s (×10^6)
same,Organ Mean Total Flux Pancreas,"Mouse 5, dose 0.5 mg/kg",0.2 p/s (×10^6)
same,Organ Mean Total Flux Spleen,"Mouse 5, dose 0.5 mg/kg",2.0 p/s (×10^6)
"CCCCC/C=C\CCOC(=O)CCCCC(=O)OCC(COC(=O)CCCCC(=O)OCC/C=C\CCCCC)(COC(=O)CCC(CCCCCC)OC(=O)NCCN1CCCC1)COC(=O)CCC(OCCCCCCCC)OCCCCCCCC (centres unmarked) [Compound 15, O6-[2-(4,4-dioctoxybutanoyloxymethyl)-2-[[6-[(Z)-non-3-enoxy]-6-oxo-hexanoyl]oxymethyl]-3-[4-(2-pyrrolidin-1-ylethylcarbamoyloxy)decanoyloxy]propyl]O1-[(Z)-non-3-enyl]hexanedioate]",Organ Mean Total Flux Femur,"Mouse 13, dose 0.5 mg/kg",1.3 p/s (×10^6)
same,Organ Mean Total Flux Heart,"Mouse 13, dose 0.5 mg/kg",1.4 p/s (×10^6)
same,Organ Mean Total Flux Kidney,"Mouse 13, dose 0.5 mg/kg",0.4 p/s (×10^6)
same,Organ Mean Total Flux Liver,"Mouse 13, dose 0.5 mg/kg",992.3 p/s (×10^6)
same,Organ Mean Total Flux Lung,"Mouse 13, dose 0.5 mg/kg",3.7 p/s (×10^6)
same,Organ Mean Total Flux Muscle,"Mouse 13, dose 0.5 mg/kg",1.1 p/s (×10^6)
same,Organ Mean Total Flux Pancreas,"Mouse 13, dose 0.5 mg/kg",0.1 p/s (×10^6)
same,Organ Mean Total Flux Spleen,"Mouse 13, dose 0.5 mg/kg",1.6 p/s (×10^6)
"CCCCC/C=C\CCOC(=O)CCCCC(=O)OCC(COC(=O)CCCCC(=O)OCC/C=C\CCCCC)(COC(=O)CCC(CCCCCC)OC(=O)NCCN1CCCC1)COC(=O)[C@]12CC[C@H](CC1)C2 (some centres unmarked) [Compound 99, O6-[2-[[6-[(Z)-non-3-enoxy]-6-oxo-hexanoyl]oxymethyl]-2-(norbornane-1-carbonyloxymethyl)-3-[4-(2-pyrrolidin-1-ylethylcarbamoyloxy)decanoyloxy]propyl]O1-[(Z)-non-3-enyl]hexanedioate]",Organ Mean Total Flux Femur,"Mouse 12, dose 0.5 mg/kg",7.2 p/s (×10^6)
same,Organ Mean Total Flux Heart,"Mouse 12, dose 0.5 mg/kg",0.4 p/s (×10^6)
same,Organ Mean Total Flux Kidney,"Mouse 12, dose 0.5 mg/kg",1.2 p/s (×10^6)
same,Organ Mean Total Flux Liver,"Mouse 12, dose 0.5 mg/kg",177.0 p/s (×10^6)
same,Organ Mean Total Flux Lung,"Mouse 12, dose 0.5 mg/kg",31.4 p/s (×10^6)
same,Organ Mean Total Flux Muscle,"Mouse 12, dose 0.5 mg/kg",6.5 p/s (×10^6)
same,Organ Mean Total Flux Pancreas,"Mouse 12, dose 0.5 mg/kg",4.3 p/s (×10^6)
same,Organ Mean Total Flux Spleen,"Mouse 12, dose 0.5 mg/kg",47.5 p/s (×10^6)
"CCCCCCCCCOC(=O)CCCCCC(=O)OCC(COC(=O)CCCCCC(=O)OCCCCCCCCC)(COC(=O)CCCCCC(=O)OCCCCCCCCC)COC(=O)CCC(CCCCCC)OC(=O)NCCN1CCCC1 (centres unmarked) [Compound 24, O7-[2,2-bis[(7-nonoxy-7-oxo-heptanoyl)oxymethyl]-3-[4-(2-pyrrolidin-1-ylethylcarbamoyloxy)decanoyloxy]propyl]O1-nonyl heptanedioate]",Organ Mean Total Flux Femur,"Mouse 6, dose 0.5 mg/kg",6.3 p/s (×10^6)
same,Organ Mean Total Flux Heart,"Mouse 6, dose 0.5 mg/kg",7.1 p/s (×10^6)
same,Organ Mean Total Flux Kidney,"Mouse 6, dose 0.5 mg/kg",5.7 p/s (×10^6)
same,Organ Mean Total Flux Liver,"Mouse 6, dose 0.5 mg/kg",4153 p/s (×10^6)
same,Organ Mean Total Flux Lung,"Mouse 6, dose 0.5 mg/kg",28.8 p/s (×10^6)
same,Organ Mean Total Flux Muscle,"Mouse 6, dose 0.5 mg/kg",12.1 p/s (×10^6)
same,Organ Mean Total Flux Pancreas,"Mouse 6, dose 0.5 mg/kg",7.9 p/s (×10^6)
same,Organ Mean Total Flux Spleen,"Mouse 6, dose 0.5 mg/kg",10.7 p/s (×10^6)
